One data set concerns T1, La-WT:fD1-RNA complex.
T1 construct: His; made in house; host or cells: E. coli BL21
The data set is described as follows: EMSA, compound competition, La-WT:fD1. Format: binding, human. Conditions: La-WT 60 nM, fD1 50 nM. The protocol: (§1) 12% native TBE polyacrylamide gels were prepared in a Mini-PROTEAN Tetra Handcast System (BioRad). The gel was pre-run for 30 min at 140 V in 1x TBE buffer (45 mM Tris/HCl pH 8.5, 45 mM boric acid, 1 mM EDTA). To prepare the RNA-mix, fluorescence labeled RNA oligoribonucleotides (oligos) were diluted in fluorescence polarization buffer (20 mM Tris/HCl (pH 7.4), 150 mM NaCl, 3.0 mM MgCl2, 0.5 mM EDTA, 0.05% (v/v) IGEPAL), mixed for 10 min at 80°C, and then immediately placed on ice for at least 5 min. All RNA oligos were used at a final concentration of 50 nM. Recombinant La protein was diluted in D-buffer (20 mM Tris/ HCl (pH 7.4), 150mM NaCl, 3mM MgCl2, 0.5mM EDTA, 5% glycerol) and placed on ice until use.
La titration was performed at final concentrations of 20, 40, 60, 100, 200, 300, 400, 500, 600 nM La. Three different La concentrations were used for compound studies: 60 nM for fD1 RNA, 200 nM for fPolyU RNA, and 150 nM for TOPf RNA studies. Two μl of diluted compound (diluted in 100% DMSO) or 2 μl 100% DMSO (control reaction) was combined with 8 μl La-mix in a 96-well plate. 10 μl RNA-mix was added, mixed for 2 min, and incubated for 10 min at RT in the dark. Final concentrations in the reaction: 18 mM Tris/HCl (pH 7.4), 135 mM NaCl, 2.7 mM MgCl2, 0.45 mM EDTA, 0.025% (v/v) IGEPAL, 2% glycerol, 10% DMSO). Samples were loaded onto the pre-run gel without any loading buffer. Gels were run at 160 V for 40 min in the dark. The gels were carefully transferred to a clear plastic wrap and scanned using a Typhoon FLA900 imager. The La-RNA complex (La-RNP) formation was quantified using the ImageQuant TL software.
Next we used our established EMSA to test whether compound C2 and C6 can compete against the three RNA oligos: fD1, fPolyU, and TOPf. All of the EMSA reactions were loaded in the following order: lane 1 contains the RNA oligo alone; lane 2 contains the RNA oligo plus La protein at concentration that shifts 50% of the RNA oligo (positive control); lanes 3–9 contain the RNA oligo, La protein and decreasing concentrations of the compound; and lane 10 contains the RNA oligo and the highest compound concentration (negative control).
For orientation: A gel shift assay detects complexes by their altered migration in electrophoresis.

A further data set concerns La-RRM1+2:fD1 complex. The data set is described as follows: EMSA, compound competition, La-RRM1+2:fD1. Format: binding, human. The settings on record: La-RRM1+2 60 nM, fD1 50 nM. Here is the method: as §1
(§2) La titration was performed at final concentrations of 20, 40, 60, 100, 200, 300, 400, 500, 600 nM La. Three different La concentrations were used for compound studies: 60 nM for fD1 RNA, 200 nM for fPolyU RNA, and 150 nM for TOPf RNA studies. Two μl of diluted compound (diluted in 100% DMSO) or 2 μl 100% DMSO (control reaction) was combined with 8 μl La-mix in a 96-well plate. 10 μl RNA-mix was added, mixed for 2 min, and incubated for 10 min at RT in the dark. […] The La-RNA complex (La-RNP) formation was quantified using the ImageQuant TL software. […]

For the next data set, the system named is T2, La:fPolyU complex.
T2 construct: His; made in house; host or cells: E. coli BL21
The data set is described as follows: EMSA, compound competition, La-WT:fPolyU. The format is binding, human. Here is the method:
as §1, §2

Another data set relates to SCC 22B cells. The data set is described as follows: Cell toxicity, CyQUANT cell number, SCC 22B. The settings on record: for effect on SCC 22B cell numbers: 12.5-150 μM. The format is cell-based, human. The protocol:
(§3) Normal fibroblast MRC5 and human embryonic kidney HEK293 cells were purchased from ATCC. Head and neck squamous cell carcinoma cell lines UM-SCC 22A (SCC 22A) and UM-SCC 22B (SCC 22B) were described elsewhere. MRC5 cells were cultured in EMEM plus 10% FBS; SCC 22A, SCC 22B, and HEK293 cells were cultured in advanced DMEM (Gibco) containing 2 mM L-glutamine (Life Technology) and 10% FBS. All cell lines were tested for mycoplasma contamination by applying a MycoSensor PCR Assay kit according to the manufacturer’s instructions (Agilent Technologies).
(§4) To test for cell toxicity the compounds were dissolved in 100% DMSO to a concentration of 100 mM. Subsequently, compounds were diluted in media to 10 mM (10% DMSO), 1 mM (1% DMSO) and tested at 150, 125, 100, 75, 50, 25 μM in SCC 22B and MRC5 cells. To reach this concentration compounds (stock 1 mM, 1% DMSO) were diluted in the cell culture dish (96-well format, 100 μl final volume) as follows: 150 μM = 6.7 fold (final DMSO: 0.15%); 125 μM = 8.0 fold (final DMSO: 0.125%); 100 μM = 10 fold (final DMSO: 0.1%); 75 μM = 13.3 fold (final DMSO: 0.075%); 50 μM = 20 fold (final DMSO: 0.05%); and 25 μM = 40 fold (final DMSO: 0.025%). As a control the highest DMSO concentration of 0.15% was used. Cells were cultured in appropriate media (see above) for 48h. Subsequently, cells were washed twice with 1x PBS and quantified after staining with fluorescence dye (CyQUANT®, Life Technologies). For this experiments 3x10^4 of MRC5 and 1x10^4 SCC 22B cells were plate the day before the experiment.

For a further data set, the system named is MRC5 cells. The data set is described as follows: Cell toxicity, CyQUANT cell number, MRC5. Format: cell-based, human. Conditions: 48 h, up to 150 μM. The protocol:
as §3, §4

Entries after “also recorded” stand apart in the source; their conditions may differ.

Consider `O=C(O)c1ccccc1C(=O)c1ccc(O)cc1O` [C2, 2-(2,4-dihydroxybenzoyl)benzoic acid], for which the “concentration impairing La:fD1 complex formation (EMSA)” value with La-WT:fD1-RNA complex (highest concentration tested) is given as 10 mM. The “concentration blocking La-RRM1+2:fD1 complex formation (EMSA)” value with La-RRM1+2:fD1 complex stood at 5 mM. Moreover, the “concentration impairing La:PolyU complex formation (EMSA)” value in the data set with La:fPolyU complex (La-WT 200 nM, fPolyU 50 nM, highest concentration tested) is reported as 10 mM. In the data set with SCC 22B cells (48 h), the “effect on SCC 22B cell numbers” value is on record as “no effect”. Moreover, in the data set with MRC5 cells, the “toxic effect on MRC5 cells (normal fibroblasts)” value (from here on “toxic effect on MRC5 cells”) was “no toxic effect”.
On to `CCOC(=O)c1ccc2c(c1)C1C=CCC1C(C(=O)O)N2` (stereo not drawn) [C6, 8-(ethoxycarbonyl)-3a,4,5,9b-tetrahydro-3Hcyclopenta[c]quinoline-4-carboxylic acid], for which, in the data set with La-WT:fD1-RNA complex, the “concentration inhibiting La:fD1 complex formation (EMSA)” value is 10 µM. Moreover, the “concentration blocking La-RRM1+2:fD1 complex formation (EMSA)” value with La-RRM1+2:fD1 complex came out at 0.01 mM. The “competition for La:fPolyU complex formation (EMSA), in words” value in the data set on La:fPolyU complex (compared with La:fD1 and La:TOPf) is “weaker competitor”. The “effect on SCC 22B cell numbers” value with SCC 22B cells (48 h) is on record as “reduced SCC 22B cell numbers even at low concentrations”. For the same compound, the “toxic effect on MRC5 cells” value with MRC5 cells is given as “toxic effect”.
Regarding `Cc1ccc(C(=O)c2ccccc2C(=O)O)c(O)c1` [C2.01, 2-(2-hydroxy-4-methylbenzoyl)benzoic acid], the “competition for La:fD1 interaction (EMSA), in words” value in the data set on La-WT:fD1-RNA complex is given as “lower concentration; also recorded: weak competitor”. The “tolerance by SCC 22B cells” value with SCC 22B cells (50 μM, 48 hours) is recorded as “well tolerated”. Besides, the “cytotoxic concentration in SCC 22B cells” value with SCC 22B cells (48 h) is given as “higher than 50 μM”. Besides, in the data set with SCC 22B cells (SCC 22B versus MRC5, 48 h), the “selectivity: cancer cell numbers compared to effect on normal MRC5 cells” value was “preferentially reduced cancer cell numbers”. Further, the “toxic effect on MRC5 cells” value with MRC5 cells is “no toxic effect”.
